Measured values taken from patent US10881709B2, “Immune system modulators and compositions” (Canimguide Therapeutics AB, priority 2015, dated 2021).
Peptide text beside a SMILES is read from it.

Columns and labels:
K562 target cells = assay: NK-cell cytotoxicity (NKTEST, flow cytometry); format: cell-based, human; conditions: 10 ug/ml peptide, effector:target 40:1, four donors
Protocol: The NK-cell cytotoxic activity of blood mononuclear cells from four healthy donors was tested. Mononuclear cells were separated by standard Ficoll-Paque® Plus (Pharmacia AB, Sweden) density gradient centrifugation from heparinized blood obtained from healthy donors. NK cell cytotoxic activity of the mononuclear cells was then tested using a commercial kit (NKTEST, Orpegen Pharma GmblI, Heidelberg, Germany) following the manufacturers protocol. Briefly, the kit contains cryopreserved, NK-sensitive target cells (K562) labeled with a lipophilic green fluorescent membrane dye, which enables discrimination of effector and target cells. After incubation with effector cells, killed target cells are identified by a DNA-stain, which penetrates and specifically stain the nuclei of dead target cells. This way the percentage of killed targets can be determined by flow cytometry. The mononuclear cells were preincubated for 30 min at 37° C. with the indicated peptides (peptides have been described previously) at 10 ug/ml. Target cells were then added, giving an effector:target ratio of 40:1, and the cell mixture incubated at 37° C. for 3-4 hours. Samples were analysed on a FACSCalibur (BD® Biosciences, San Jose, Calif.).

P3028 = P3028 (Homo sapiens, UniProt P02768); assay: Binding of His-tag labeled P3028 to looped (cyclic) peptides on chips, ELISA; conditions: positional scan of looped 6-meres
Protocol: In order to identify cyclic peptides that bind to P3028, all possible variants of di- and tripeptides were synthesized on chips and the binding of the His-tag labeled P 3028 was analyzed using the ELISA-technique. Based on the identified binding motifs, looped 6-meres were produced and tested. […] Positional scans were performed in each position of the lead cyclic peptide was replaced with each of the other 19 L-amino acids. Binding of each of the substituted peptides was tested, and peptide sequences with even better binding capacity than that of the lead peptide were identified.

P3028, dHSA, HSA = assay: ELISA and competition ELISA with rabbit anti-3028 antiserum; format: binding, human; conditions: competition ELISA, serum L
Protocol: Duplicate wells in Hi-binding microtitre plates (Costar® 2592, Corning® Inc, NY, USA) were coated with 100 μl of P3028 (10 ug/ml), denatured HSA (denHSA, 4.5 ug/ml) or control HSA sample (4.5 ug/ml). All coating reagent were diluted in PBS and incubated at room temperature overnight. The wells where then washed with wash buffer consisting of 0.05% Tween-20 in PBS (Sigma®) followed by blocking for 1 hr at 25° C. with 200 μl 0.5% gelatin prepared from bovine skin (Sigma®) in PBS followed by washing in wash buffer. […] Biotinylated horse anti-rabbit/mouse IgG (Vectastain® ELITE, Vector® Laboratories Inc, CA, USA) diluted 1/5 in ELISA reagent diluent was then added and the plates incubated for 1 h at 25° C. followed by washing. Next, HRP-conjugated streptavidin (R&D Systems® Europe, Ltd, UK) was added. Finally, after washing in wash buffer, substrate solution consisting of H2O2 and tetramethylbenzidine (R&D Systems®) was added. The reaction was stopped with 1M H2504 and the optical density measured as absorbance (A) at dual wavelengths, 450 nm and 570 nm, with a Multiscan® EX microplate reader (Labsystems).
Two antisera, R and L, from two different rabbits were tested for their ability to bind human serum and denatured Human Serum Albumin (dHSA). […] No substantial binding was detected for wells with no coat 202. […]

PBMCs = assay: IL-2 induced proliferation of PBMCs, 3H-thymidine incorporation (human ex vivo model); format: cell-based; conditions: for inhibition of IL-2 induced proliferation: PBMCs from healthy control samples, 7 days, 3H-thymidine; for neutralization of the inhibitory effect of P3028 on IL-2 induced proliferation: fragments alone or in combination
Protocol: 100 μl of RPMI1640 supplemented with 200 IU/ml penicillin, […] streptomycin, 4 mM L-glutamine (all from Sigma® Chemical Co. MO, US) and 20% heat-inactivated human serum (autologous or from cancer patients) were added to uncoated, HSA or HSA/IgG coated tissue culture microtiter plates. PBMC, isolated from healthy individuals or patients with metastatic renal cell carcinoma, were diluted in RPMI/2% HSA at a concentration of 5×10^5/ml and 100 μl were added to the microtiter wells. Interleukin-2 (IL-2, Proleukin®, Chiron®, NL), at a final concentration of 120 IU/well, was added to some wells. Cells were cultured for 7 days in a humidified, 5% CO2-atmosphere at 37° C. Proliferation was assayed by incorporation of 1.6 μCi/well of [^3H]-thymidine (Amersham® Int., UK) during the last 18 hrs. Mean values of dpm (disintegrations per minute) of triplicates were used for the calculations.
Cultures for IL-2 induced proliferation was set up with PBMC from healthy donors and autologous serum as described above with the exception that PBMC were first pre-incubated for 30 min at room temperature with the indicated albumin peptides at a concentration of 10 μg/ml.
Round-bottomed, 96-well tissue culture plates (Costar®, Corning® Inc. NY, US) were pre-coated with HSA only or HSA and pooled human IgG for intravenous injection (Gammagard®, Baxter AS, DK) as follows; HSA was diluted in RPMI1640 without supplements to a concentration of 10 mg/ml. A mixture of 1 mg/ml IgG in a solution of 9 mg/ml HSA in RPMI (HSA/IgG) was also prepared. 200 μl of HSA or HSA/IgG were then added to each well of the plate. The plates were incubated at 4° C. for 30 minutes after which the wells were washed twice with 200 μl of RPMI1640. The coated plates were used immediately. 100 μl of RPMI1640 supplemented with 200 IU/ml penicillin, […] streptomycin, 4 mM L-glutamine (all from Sigma® Chemical Co. MO, US) and 20% heat-inactivated human serum (autologous) were added to the HSA or HSA/IgG coated tissue culture microtiter wells. PBMC, isolated from healthy individuals, were diluted in RPMI/2% HSA and peptides were added directly to the cell suspension at a concentration of 10 μg/ml. One hundred μl of this cell suspension (5×10^4 lymphocytes) was then added per well providing a final concentration of 5 μg/ml peptide per well. IL-2 (Proleukin®, Chiron®, NL), at a final concentration of 120 IU/well, was added to the wells. Cells were cultured for 7 days in a humidified, 5% CO2-atmosphere at 37° C. Proliferation was assayed by incorporation of 1.6 μCi/well of [^3H]-thymidine (Amersham® Int., UK) during the last 18 hrs. Mean values of dpm (disintegrations per minute) of triplicates were used for the calculations.
The model included PBMCs isolated from venous blood samples from healthy blood donors (control samples) or cancer patients. One hundred pI of culture medium (RPMI 1640 Dutch's modification (Gibco®, InVitrogenAB®, Stockholm, Sweden) supplemented with 200 IV/ml penicillin, 200 ug/ml streptomycin, 4 mM L-glutamine (all from Sigma® Chemical Co. MO, US) and 20% heat-inactivated human serum) were added to roundbottomed, 96-well tissue culture plates (Costar®, Corning® Inc. NY, US). […] Control sample wells without IL-2 was set up in parallel. […]
The effect of different peptides on IL-2 induced proliferation was analyzed in the human ex vivo model, using PBMCs from healthy control samples. […] Proliferation was measured as incorporation of ^3H-thymidine during the final 18 hours. […]

Solubility = format: physicochemical

| binding of cyclic peptides to P3028 (P3028) | Compound | binding of rabbit anti-P3028 serum antibodies to P3028 fragments (P3028, dHSA, HSA) | inhibition of IL-2 induced proliferation (PBMCs) | neutralization of the inhibitory effect of P3028 on IL-2 induced proliferation (PBMCs) | other results |
| --- | --- | --- | --- | --- | --- |
| – | CC(C)C[C@H](NC(=O)[C@H](C)NC(=O)[C@H](CC(N)=O)NC(=O)[C@H](CCC(N)=O)NC(=O)[C@H](Cc1ccccc1)NC(=O)[C@H](CCCCN)NC(=O)[C@H](Cc1ccc(O)cc1)NC(=O)[C@H](CCC(=O)O)NC(=O)CNC(=O)[C@H](CC(C)C)NC(=O)[C@H](CCC(N)=O)NC(=O)[C@H](CCC(=O)O)NC(=O)[C@H](Cc1ccccc1)NC(=O)[C@H](CC(C)C)NC(=O)[C@@H](N)CCC(=O)O)C(=O)N[C@@H](CC(C)C)C(=O)N[C@H](C(=O)N[C@@H](CCCNC(=N)N)C(=O)O)C(C)C [P3027] (H-ELFEQLGEYKFQNALLVR-OH; N-terminus and C-terminus assumed) | – | – | – | effect on NK-cell cytotoxicity (percent specific lysis of K562) (K562 target cells): Inhibition was not seen |
| highest affinity | CLRLNVFCG [SEQ ID NO: 265] | – | – | – | – |
| – | VFDEFKPLVE (listed as Homo sapiens) [P3325] | bound preferentially | much weaker | do not inhibit | – |
| highest affinity | CLRLIVMCG [SEQ ID NO: 266] | – | – | – | – |
| – | EPQNLIK (listed as Homo sapiens) [P3218] | not | much weaker | do not inhibit | – |
| – | CC(C)C[C@H](NC(=O)[C@H](CO)NC(=O)[C@H](CC(C)C)NC(=O)[C@H](Cc1ccc(O)cc1)NC(=O)[C@@H](NC(=O)[C@H](Cc1ccccc1)NC(=O)[C@H](Cc1ccccc1)NC(=O)[C@@H](NC(=O)[C@H](CC(=O)O)NC(=O)[C@H](CC(C)C)NC(=O)[C@H](CCCCN)NC(=O)[C@@H](N)CCCCN)[C@@H](C)O)C(C)C)C(=O)N[C@@H](Cc1ccccc1)C(=O)N[C@H](C(=O)N[C@@H](CCC(=O)O)C(=O)N[C@@H](CCCNC(=N)N)C(=O)O)[C@@H](C)O [SEQ ID NO: 552] (H-KKLDTFFVYLSLFTER-OH; N-terminus and C-terminus assumed) | – | – | – | solubility (Solubility): soluble in aqueous solution |
